Measurements as given in ChEMBL document CHEMBL1147193, “New 5-substituted thiazolo[3,2-b][1,2,4]triazol-6-ones: synthesis and anticancer evaluation” (2007).

How the values were obtained:
Format in all cases: functional
CAKI-1 = assay: Growth inhibition of human CAKI1 cells after 48 hrs by SRB protein assay; settings: CAKI-1, 48 h
K562 = assay: Growth inhibition of human K562 cells after 48 hrs by SRB protein assay; settings: K562, 48 h
OVCAR-3 = assay: Growth inhibition of human OVCAR-3 cells after 48 hrs by SRB protein assay; settings: OVCAR-3, 48 h
UACC-257 = assay: Growth inhibition of human UACC257 cells after 48 hrs by SRB protein assay; settings: UACC-257, 48 h
UO-31 = assay: Growth inhibition of human UO31 cells after 48 hrs by SRB protein assay; settings: UO-31, 48 h
SK-MEL-2 = assay: Growth inhibition of human SK-MEL-2 cells after 48 hrs by SRB protein assay; settings: SK-MEL-2, 48 h
NCI-H522 = assay: Growth inhibition of human NCI-H522 cells after 48 hrs by SRB protein assay; settings: NCI-H522, 48 h
[1] = Growth inhibition of human MALME 3M cells after 48 hrs by SRB protein assay
SF-268 [2] = assay: Growth inhibition of human SF268 cells after 48 hrs by SRB protein assay; settings: SF-268, 48 h
RXF 393 = assay: Growth inhibition of human RXF393 cells after 48 hrs by SRB protein assay; settings: RXF 393, 48 h
SN12C = assay: Growth inhibition of human SN12C cells after 48 hrs by SRB protein assay
SF-268 [3] = assay: Anticancer activity against human SF268 cells assessed as growth of cells at 100 uM relative to untreated cells
[4] = Growth inhibition of human MDA-MB-231/ATCC cells after 48 hrs by SRB protein assay; settings: MDA-MB-231, 48 h
RPMI-8226 = assay: Growth inhibition of human RPMI8226 cells after 48 hrs by SRB protein assay; settings: RPMI-8226, 48 h
NCI-H460 = assay: Anticancer activity against human NCI-H460 cells assessed as growth of cells at 100 uM relative to untreated cells
786-0 = assay: Growth inhibition of human 786-0 cells after 48 hrs by SRB protein assay; settings: 786-0, 48 h
M14 = assay: Growth inhibition of human M14 cells after 48 hrs by SRB protein assay; settings: M14, 48 h
OVCAR-5 = assay: Growth inhibition of human OVCAR5 cells after 48 hrs by SRB protein assay; settings: OVCAR-5, 48 h
HCT-15 = assay: Growth inhibition of human HCT15 cells after 48 hrs by SRB protein assay; settings: HCT-15, 48 h
UACC-62 = assay: Growth inhibition of human UACC62 cells after 48 hrs by SRB protein assay; settings: UACC-62, 48 h
OVCAR-4 = assay: Growth inhibition of human OVCAR4 cells after 48 hrs by SRB protein assay; settings: OVCAR-4, 48 h
ACHN = assay: Growth inhibition of human ACHN cells after 48 hrs by SRB protein assay
Hs-578T = assay: Growth inhibition of human HS578T cells after 48 hrs by SRB protein assay
HCC 2998 = assay: Growth inhibition of human HCC2998 cells after 48 hrs by SRB protein assay; settings: HCC 2998, 48 h
HT-29 = assay: Growth inhibition of human HT29 cells after 48 hrs by SRB protein assay; settings: HT-29, 48 h
KM12 = assay: Growth inhibition of human KM12 cells after 48 hrs by SRB protein assay; settings: KM12, 48 h
SF-295 = assay: Growth inhibition of human SF295 cells after 48 hrs by SRB protein assay; settings: SF-295, 48 h
SK-MEL-5 = assay: Growth inhibition of human SK-MEL-5 cells after 48 hrs by SRB protein assay; settings: SK-MEL-5, 48 h
PC-3 = assay: Growth inhibition of human PC3 cells after 48 hrs by SRB protein assay; settings: PC-3, 48 h
NCI-H226 = assay: Growth inhibition of human NCI-H226 cells after 48 hrs by SRB protein assay; settings: NCI-H226, 48 h
A549 = assay: Growth inhibition of human A549/ATCC cells after 48 hrs by SRB protein assay; settings: A549, 48 h
HOP-92 = assay: Growth inhibition of human HOP92 cells after 48 hrs by SRB protein assay; settings: HOP-92, 48 h
LOX IMVI = assay: Growth inhibition of human LOX IMVI cells after 48 hrs by SRB protein assay
U-251 = assay: Growth inhibition of human U251 cells after 48 hrs by SRB protein assay; settings: U-251, 48 h
NCI/ADR-RES = assay: Growth inhibition of human NCI/ADR-RES cells after 48 hrs by SRB protein assay
OVCAR-8 = assay: Growth inhibition of human OVCAR8 cells after 48 hrs by SRB protein assay; settings: OVCAR-8, 48 h
HCT-116 = assay: Growth inhibition of human HCT116 cells after 48 hrs by SRB protein assay; settings: HCT-116, 48 h
BT-549 = assay: Growth inhibition of human BT549 cells after 48 hrs by SRB protein assay; settings: BT-549, 48 h
MCF7 [5] = assay: Anticancer activity against human MCF7 cells assessed as growth of cells at 100 uM relative to untreated cells
MCF7 [6] = assay: Growth inhibition of human MCF7 cells after 48 hrs by SRB protein assay; settings: MCF7, 48 h

O=C(CC1Sc2ncnn2C1=O)Nc1ccc(Cl)cc1 (configuration not stated)
GI50 (CAKI-1): > 100 µM | TGI (CAKI-1; read-out: Log TGI (converted)): > 100 µM | GI50 (K562): 19.1 µM | TGI (K562; read-out: Log TGI (converted)): 43.7 µM | GI50 (OVCAR-3): 21.9 µM | TGI (OVCAR-3; read-out: Log TGI (converted)): 51.3 µM | GI50 (UACC-257): 40.7 µM | TGI (UACC-257; read-out: Log TGI (converted)): > 100 µM | GI50 (UO-31): 22.9 µM | TGI (UO-31; read-out: Log TGI (converted)): 45.7 µM | GI50 (SK-MEL-2): > 100 µM | TGI (SK-MEL-2; read-out: Log TGI (converted)): > 100 µM | GI50 (NCI-H522): 26.9 µM | TGI (NCI-H522; read-out: Log TGI (converted)): 64.6 µM | GI50 [1]: 14.8 µM | TGI ([1]; read-out: Log TGI (converted)): 38.9 µM | GI50 (SF-268 [2]): > 100 µM | TGI (SF-268 [2]; read-out: Log TGI (converted)): > 100 µM | GI50 (RXF 393): 25.1 µM | TGI (RXF 393; read-out: Log TGI (converted)): 51.3 µM | GI50 (SN12C): 22.9 µM | TGI (SN12C; read-out: Log TGI (converted)): 53.7 µM | Activity (SF-268 [3]): 107% | GI50 [4]: 31.6 µM | TGI ([4]; read-out: Log TGI (converted)): 83.2 µM | GI50 (RPMI-8226): 24 µM | TGI (RPMI-8226; read-out: Log TGI (converted)): 100 µM | Activity (NCI-H460): 0% | GI50 (786-0): 20.4 µM | TGI (786-0; read-out: Log TGI (converted)): 43.7 µM | GI50 (M14): 35.5 µM | TGI (M14; read-out: Log TGI (converted)): > 100 µM | GI50 (OVCAR-5): 22.4 µM | TGI (OVCAR-5; read-out: Log TGI (converted)): 56.2 µM | GI50 (HCT-15): 15.8 µM | TGI (HCT-15; read-out: Log TGI (converted)): 40.7 µM | GI50 (UACC-62): > 100 µM | TGI (UACC-62; read-out: Log TGI (converted)): > 100 µM | GI50 (OVCAR-4): 31.6 µM | TGI (OVCAR-4; read-out: Log TGI (converted)): 83.2 µM | GI50 (ACHN): 17.4 µM | TGI (ACHN; read-out: Log TGI (converted)): 30.9 µM | GI50 (Hs-578T): > 100 µM | TGI (Hs-578T; read-out: Log TGI (converted)): > 100 µM | GI50 (HCC 2998): 38 µM | TGI (HCC 2998; read-out: Log TGI (converted)): > 100 µM | GI50 (HT-29): 28.8 µM | TGI (HT-29; read-out: Log TGI (converted)): 75.9 µM | GI50 (KM12): > 100 µM | TGI (KM12; read-out: Log TGI (converted)): > 100 µM | GI50 (SF-295): > 100 µM | TGI (SF-295; read-out: Log TGI (converted)): > 100 µM | GI50 (SK-MEL-5): > 100 µM | TGI (SK-MEL-5; read-out: Log TGI (converted)): > 100 µM | GI50 (PC-3): 55 µM | TGI (PC-3; read-out: Log TGI (converted)): > 100 µM | GI50 (NCI-H226): 91.2 µM | TGI (NCI-H226; read-out: Log TGI (converted)): > 100 µM | GI50 (A549): > 100 µM | TGI (A549; read-out: Log TGI (converted)): > 100 µM | GI50 (HOP-92): 25.1 µM | TGI (HOP-92; read-out: Log TGI (converted)): 64.6 µM | GI50 (LOX IMVI): 20.4 µM | TGI (LOX IMVI; read-out: Log TGI (converted)): 45.7 µM | GI50 (U-251): 18.2 µM | TGI (U-251; read-out: Log TGI (converted)): 33.9 µM | GI50 (NCI/ADR-RES): 38 µM | TGI (NCI/ADR-RES; read-out: Log TGI (converted)): > 100 µM | GI50 (OVCAR-8): > 100 µM | TGI (OVCAR-8; read-out: Log TGI (converted)): > 100 µM | GI50 (HCT-116): 20 µM | TGI (HCT-116; read-out: Log TGI (converted)): 30.9 µM | GI50 (BT-549): 37.2 µM | TGI (BT-549; read-out: Log TGI (converted)): 95.5 µM | Activity (MCF7 [5]): 0% | GI50 (MCF7 [6]): 43.7 µM | TGI (MCF7 [6]; read-out: Log TGI (converted)): > 100 µM
